Among the data in the NIST ThermoML archive (doi:10.1016/j.fluid.2013.05.022) are mass density and refractive index values, retold here.

Numbers after ± are expanded uncertainties.

In general, mass density refers to mass per unit of volume. In general, refractive index refers to the speed of light in vacuum divided by its phase velocity in the sample.

The conditions of data set [1]: 298.15 K; 85.9 kPa; Liquid; Vibrating tube method.
The nature of data set [2]: refractive index (Na D-line) (dimensionless). The settings on record: 298.15 K; 859 kPa; Liquid; Standard Abbe refractometry.

Consider `CN(C)C=O` [dimethylformamide], for which the mass density in data set [1] came out at 944.53 ± 1 kg/m3. For the same compound, the refractive index in data set [2] was 1.4281 ± 0.0004.
